Experimental data from the supplement of paper PMC10307832.

Assays:
Experiment in all cases: relative viability (nuclei count vs DMSO), 5 days (fraction); higher = more cells survive
[1] = compound: C[C@]1(O)C[C@@H](c2nc(-c3ccc4ccc(-c5ccccc5)nc4c3)c3c(N)nccn32)C1 [Linsitinib] + COc1cc2c(Oc3ccc(NC(=O)C4(C(=O)Nc5ccc(F)cc5)CC4)cc3F)ccnc2cc1OCCCN1CCOCC1 [Foretinib] (partner 0.25 µM)
Outline: (§1)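 After 5 days of treatment, lung cancer cells in 1536-well plates were fixed and stained in a single step (final 0.05% Triton X-100, 1% formaldehyde, 1 ug/ml Hoechst) and their nuclei counted on 4× images. Treatment had been applied by pin tool the day after seeding as one drug alone or as a fixed anchor-drug dose with five library-drug doses (not always all listed) in √10 steps. Relative viability is the nuclei count of treated wells divided by that of vehicle wells, and values are medians of duplicate plates.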

[2] = compound: Cc1ccc(C(=O)N(CCCN)[C@@H](c2nc3cc(Cl)ccc3c(=O)n2Cc2ccccc2)C(C)C)cc1 [Ispinesib] + Cc1nc(Nc2ncc(C(=O)Nc3c(C)cccc3Cl)s2)cc(N2CCN(CCO)CC2)n1 [Dasatinib] (partner 0.075 µM)
Outline: as §1

[3] = compound: Cc1ccc(C(=O)N(CCCN)[C@@H](c2nc3cc(Cl)ccc3c(=O)n2Cc2ccccc2)C(C)C)cc1 [Ispinesib] + N=C(N)NC(=N)NCCc1ccccc1 [Phenformin] (partner 250 µM)
Outline: as §1

[4] = compound: C[C@]1(O)C[C@@H](c2nc(-c3ccc4ccc(-c5ccccc5)nc4c3)c3c(N)nccn32)C1 [Linsitinib] + CS(=O)(=O)N1CCN(Cc2cc3nc(-c4cccc5[nH]ncc45)nc(N4CCOCC4)c3s2)CC1 [Pictilisib] (partner 1 µM)
Outline: as §1

Row | Cell Line | relative viability ([1]; first compound 0.01 µM) | relative viability ([1]; first compound 0.03162 µM) | relative viability ([1]; first compound 0.1 µM) | relative viability ([1]; first compound 1 µM) | relative viability ([2]; first compound 0.001 µM) | relative viability ([2]; first compound 0.003162 µM) | relative viability ([2]; first compound 0.01 µM) | relative viability ([2]; first compound 0.03162 µM) | relative viability ([2]; first compound 0.1 µM) | relative viability ([3]; first compound 0.001 µM) | relative viability ([3]; first compound 0.003162 µM) | relative viability ([3]; first compound 0.01 µM) | relative viability ([3]; first compound 0.03162 µM) | relative viability ([3]; first compound 0.1 µM) | relative viability ([4]; first compound 0.01 µM) | relative viability ([4]; first compound 0.03162 µM) | relative viability ([4]; first compound 0.1 µM) | relative viability ([4]; first compound 0.3162 µM) | relative viability ([4]; first compound 1 µM) | relative viability ([1]; first compound 0.3162 µM)
1 | LXF-289 | 0.968 | 0.944 | 0.984 | 0.994 | 0.308 | 0.215 | 0.197 | 0.209 | 0.0629 | 0.515 | 0.527 | 0.541 | 0.392 | 0.0531 | 0.76 | 0.875 | 0.738 | 0.539 | 0.592 | –
2 | NCI-H460 | 1.02 | 1.05 | 0.969 | 1.02 | 0.557 | 0.619 | 0.573 | 0.323 | 0.0386 | 0.557 | 0.579 | 0.559 | 0.0429 | 0.032 | 0.308 | 0.36 | 0.278 | 0.494 | 0.225 | 0.935
3 | NCI-H1792 | – | – | – | – | 1.25 | 0.777 | 0.776 | 0.9 | 0.325 | 0.396 | 0.317 | 0.257 | 0.0806 | 0.154 | 0.314 | 0.279 | 0.192 | 0.269 | 0.179 | –
4 | EMC-BAC-2 | 0.95 | 0.979 | 1.1 | 0.819 | 0.354 | 0.236 | 0.351 | 0.257 | 0.19 | 0.557 | 0.545 | 0.534 | 0.372 | 0.209 | 0.47 | 0.489 | 0.496 | 0.455 | 0.412 | 0.907
5 | CAL-12T | 1.08 | 1.13 | 1.18 | 1.1 | 0.376 | 0.482 | 0.338 | 0.128 | 0.188 | 0.515 | 0.57 | 0.592 | 0.139 | 0.172 | 0.44 | 0.368 | 0.585 | 0.379 | 0.336 | 0.752
6 | ChaGo-K-1 | 0.853 | 0.903 | 0.85 | 0.882 | 0.584 | 0.605 | 0.643 | 0.668 | 0.226 | 0.519 | 0.5 | 0.529 | 0.535 | 0.172 | 0.809 | 0.665 | 0.576 | 0.317 | 0.666 | 0.762
7 | COR-L 105 | 0.969 | 1.03 | 1.08 | 0.908 | 0.462 | 0.303 | 0.31 | 0.195 | 0.238 | 0.602 | 0.455 | 0.366 | 0.216 | 0.258 | 0.454 | 0.434 | 0.387 | 0.301 | 0.25 | 0.956
8 | NCI-H1944 | 0.921 | 1.02 | 0.821 | 0.674 | 0.214 | 0.266 | 0.211 | 0.184 | 0.104 | 0.199 | 0.247 | 0.206 | 0.167 | 0.106 | 0.33 | 0.354 | 0.344 | 0.349 | 0.299 | 0.674
